Patent publication US9109004B2, “Progesterone receptor antagonists” (Bayer Intellectual Property GmbH, priority 2010, dated 2015)

Target: T1, human progesterone receptor A (Homo sapiens, UniProt P06401)
T1 construct: expressed in transfected cells; host or cells: SK-N-MC human neuroblastoma cells, stably transfected
T1 sequence (P06401 1-769 isoform P06401-2): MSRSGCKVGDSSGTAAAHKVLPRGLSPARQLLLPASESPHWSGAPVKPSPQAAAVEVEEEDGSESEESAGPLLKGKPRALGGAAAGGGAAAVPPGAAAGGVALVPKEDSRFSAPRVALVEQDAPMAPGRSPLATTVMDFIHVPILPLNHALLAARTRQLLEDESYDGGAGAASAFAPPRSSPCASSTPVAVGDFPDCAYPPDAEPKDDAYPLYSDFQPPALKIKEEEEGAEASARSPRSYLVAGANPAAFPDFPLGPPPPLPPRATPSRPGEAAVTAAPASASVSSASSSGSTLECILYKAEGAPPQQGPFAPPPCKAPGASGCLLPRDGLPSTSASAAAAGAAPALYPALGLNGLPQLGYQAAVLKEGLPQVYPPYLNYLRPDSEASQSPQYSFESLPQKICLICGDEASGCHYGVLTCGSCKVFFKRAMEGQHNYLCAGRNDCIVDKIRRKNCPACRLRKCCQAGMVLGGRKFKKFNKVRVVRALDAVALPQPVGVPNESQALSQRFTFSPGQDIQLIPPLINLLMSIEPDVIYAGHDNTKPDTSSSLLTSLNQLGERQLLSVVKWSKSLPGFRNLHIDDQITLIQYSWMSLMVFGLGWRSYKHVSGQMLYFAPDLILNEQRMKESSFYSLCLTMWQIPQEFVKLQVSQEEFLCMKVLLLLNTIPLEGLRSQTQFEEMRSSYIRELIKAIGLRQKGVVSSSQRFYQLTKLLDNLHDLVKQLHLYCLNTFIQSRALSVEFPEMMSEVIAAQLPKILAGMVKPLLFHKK
Experiment: Progesterone-receptor-antagonistic action in stably transfected SK-N-MC cells, MTV-LUC reporter (PR-A)
Assay type: cell-based
Details: antagonistic potency vs 0.1 nmol/l promegestone, 24 hours, luciferase
Protocol: Progesterone-Receptor-Antagonistic Action in Stable Transfectants of Human Neuroblastoma Cells (SK-N-MC Cells) with the Human Progesterone A or Progesterone B Receptor and an MTV-LUC Reporter Construct
SK-N-MC cells (human neuroblastoma cells) that have been stably transfected with plasmids that express the human progesterone receptor B (pRChPR-B-neo) or the human progesterone receptor A (pRChPR-A-neo) and a reporter construct (pMMTV-LUC), were incubated for 24 hours either in the absence (negative control) or in the presence of increasing amounts of the particular test compound (0.01 nmol/l, 0.1 nmol/l, 1 nmol/l, 10 nmol/l, 100 nmol/l and 1 μmol/l), to determine the agonistic efficacy. As positive control of reporter gene induction, the cells were treated with the synthetic gestagen promegestone (0.01 nmol/l, 0.1 nmol/l, 1 nmol/l, 10 nmol/l, 100 nmol/l and 1 μmol/l). For determination of the antagonistic activity, the cells were treated with 0.1 nmol/l promegestone and additionally with increasing amounts of the particular test compound (0.01 nmol/l, 0.1 nmol/l, 1 nmol/l, 10 nmol/l, 100 nmol/l and 1 μmol/l). The activity of the reporter gene LUC (LUC=luciferase) was determined in the cell lysates and was measured as RLU (relative light units). All measured values are given as % efficacy and as EC50 or IC50 concentrations.

Structure (SMILES) | IC50 [nM]
C[C@]12C[C@H](c3ccc(C(=O)N4CCN(c5ccccc5)CC4)cc3)C3=C4CCC(=O)C=C4CC[C@H]3[C@@H]1CC[C@@]2(O)C(F)(F)C(F)(F)F [Example 30, (11β,17β)-17-hydroxy-17-(pentafluoroethyl)-11-{4-[(4-phenylpiperazin-1-yl)carbonyl]phenyl}estra-4,9-dien-3-one] | 7.2
CNC(=O)CN1CCN(C(=O)c2ccc([C@H]3C[C@@]4(C)[C@@H](CC[C@@]4(O)C(F)(F)C(F)(F)F)[C@@H]4CCC5=CC(=O)CCC5=C43)cc2)CC1 [Example 71, 2-(4-{4-[(11β,17β)-17-hydroxy-3-oxo-17-(pentafluoroethyl)estra-4,9-dien-11-yl]benzoyl}piperazin-1-yl)-N-methylacetamide] | 38
C[C@]12C[C@H](c3ccc(C(=O)N4CCC(c5ccccc5)CC4)cc3)C3=C4CCC(=O)C=C4CC[C@H]3[C@@H]1CC[C@@]2(O)C(F)(F)C(F)(F)F [Example 63, (11β,17β)-17-hydroxy-17-(pentafluoroethyl)-11-{4-[(4-phenylpiperidin-1-yl)carbonyl]phenyl}estra-4,9-dien-3-one] | 4.1
CN(Cc1cccnc1)C(=O)c1ccc([C@H]2C[C@@]3(C)[C@@H](CC[C@@]3(O)C(F)(F)C(F)(F)F)[C@@H]3CCC4=CC(=O)CCC4=C32)cc1 [Example 32, 4-[(11β,17β)-17-hydroxy-3-oxo-17-(pentafluoroethyl)estra-4,9-dien-11-yl]-N-methyl-N-(pyridin-3-ylmethyl)benzamide] | 375
C[C@]12C[C@H](c3ccc(C(=O)NCc4ccc(S(N)(=O)=O)cc4)cc3)C3=C4CCC(=O)C=C4CC[C@H]3[C@@H]1CC[C@@]2(O)C(F)(F)C(F)(F)F [Example 18, 4-[(11β,17β)-17-hydroxy-3-oxo-17-(pentafluoroethyl)estra-4,9-dien-11-yl]-N-(4-sulphamoylbenzyl)benzamide] | 4.7
C[C@]12C[C@H](c3ccc(C(=O)Nc4ccc(Cl)cc4)cc3)C3=C4CCC(=O)C=C4CC[C@H]3[C@@H]1CC[C@@]2(O)C(F)(F)C(F)(F)F [Example 26, N-(4-chlorophenyl)-4-[(11β,17β)-17-hydroxy-3-oxo-17-(pentafluoroethyl)estra-4,9-dien-11-yl]benzamide] | 28
C[C@]12C[C@H](c3ccc(C(=O)Nc4ccc(C(=O)O)cc4)cc3)C3=C4CCC(=O)C=C4CC[C@H]3[C@@H]1CC[C@@]2(O)C(F)(F)C(F)(F)F [Example 78, 4-({4-[(11β,17β)-17-Hydroxy-3-oxo-17-(pentafluoroethyl)estra-4,9-dien-11-yl]benzoyl}amino)benzoic acid] | 9.6
COc1ccc(CNC(=O)c2ccc([C@H]3C[C@@]4(C)[C@@H](CC[C@@]4(O)C(F)(F)C(F)(F)F)[C@@H]4CCC5=CC(=O)CCC5=C43)cc2)cc1 [Example 35, 4-[(11β,17β)-17-hydroxy-3-oxo-17-(pentafluoroethyl)estra-4,9-dien-11-yl]-N-(4-methoxybenzyl)benzamide] | 34
C[C@]12C[C@H](c3ccc(C(=O)Nc4cccnc4)cc3)C3=C4CCC(=O)C=C4CC[C@H]3[C@@H]1CC[C@@]2(O)C(F)(F)C(F)(F)F [Example 12, 4-[(11β,17β)-17-hydroxy-3-oxo-17-(pentafluoroethyl)estra-4,9-dien-11-yl]-N-(pyridin-3-yl)benzamide] | 1.32
C[C@]12C[C@H](c3ccc(C(=O)N4CCN(c5ccncc5)CC4)cc3)C3=C4CCC(=O)C=C4CC[C@H]3[C@@H]1CC[C@@]2(O)C(F)(F)C(F)(F)F [Example 45, (11β,17β)-17-hydroxy-17-(pentafluoroethyl)-11-(4-{[4-(pyridin-4-yl)piperazin-1-yl]carbonyl}phenyl)estra-4,9-dien-3-one] | 26
C[C@]12C[C@H](c3ccc(C(=O)N4CCN(c5cnccn5)CC4)cc3)C3=C4CCC(=O)C=C4CC[C@H]3[C@@H]1CC[C@@]2(O)C(F)(F)C(F)(F)F [Example 46, (11β,17β)-17-hydroxy-17-(pentafluoroethyl)-11-(4-{[4-(pyrazin-2-yl)piperazin-1-yl]carbonyl}phenyl)estra-4,9-dien-3-one] | 4.3
C[C@]12C[C@H](c3ccc(C(=O)NCCc4ccccc4)cc3)C3=C4CCC(=O)C=C4CC[C@H]3[C@@H]1CC[C@@]2(O)C(F)(F)C(F)(F)F [Example 16, 4-[(11β,17β)-17-hydroxy-3-oxo-17-(pentafluoroethyl)estra-4,9-dien-11-yl]-N-(2-phenylethyl)benzamide] | 0.67
CN(C(=O)c1ccc([C@H]2C[C@@]3(C)[C@@H](CC[C@@]3(O)C(F)(F)C(F)(F)F)[C@@H]3CCC4=CC(=O)CCC4=C32)cc1)c1ccccc1 [Example 28, 4-[(11β,17β)-17-hydroxy-3-oxo-17-(pentafluoroethyl)estra-4,9-dien-11-yl]-N-methyl-N-phenylbenzamide] | 63
C[C@]12C[C@H](c3ccc(C(=O)NCc4ccccn4)cc3)C3=C4CCC(=O)C=C4CC[C@H]3[C@@H]1CC[C@@]2(O)C(F)(F)C(F)(F)F [Example 20, 4-[(11β,17β)-17-hydroxy-3-oxo-17-(pentafluoroethyl)estra-4,9-dien-11-yl]-N-(pyridin-2-ylmethyl)benzamide] | 3.8
C[C@]12C[C@H](c3ccc(C(=O)NCc4ccc(Cl)cc4)cc3)C3=C4CCC(=O)C=C4CC[C@H]3[C@@H]1CC[C@@]2(O)C(F)(F)C(F)(F)F [Example 36, N-(4-chlorobenzyl)-4-[(11β,17β)-17-hydroxy-3-oxo-17-(pentafluoroethyl)estra-4,9-dien-11-yl]benzamide] | 20
CC(=O)NCCNC(=O)c1ccc([C@H]2C[C@@]3(C)[C@@H](CC[C@@]3(O)C(F)(F)C(F)(F)F)[C@@H]3CCC4=CC(=O)CCC4=C32)cc1 [Example 37, N-(2-acetamidoethyl)-4-[(11β,17β)-17-hydroxy-3-oxo-17-(pentafluoroethyl)estra-4,9-dien-11-yl]benzamide] | 385
C[C@]12C[C@H](c3ccc(C(=O)N4CCN(CCc5ccccc5)CC4)cc3)C3=C4CCC(=O)C=C4CC[C@H]3[C@@H]1CC[C@@]2(O)C(F)(F)C(F)(F)F [Example 44, (11β,17β)-17-hydroxy-17-(pentafluoroethyl)-11-(4-{[4-(2-phenylethyl)piperazin-1-yl]carbonyl}phenyl)estra-4,9-dien-3-one] | 25
C[C@]12C[C@H](c3ccc(C(=O)N4CCN(Cc5cccnc5)CC4)cc3)C3=C4CCC(=O)C=C4CC[C@H]3[C@@H]1CC[C@@]2(O)C(F)(F)C(F)(F)F [Example 69, (11β,17β)-17-hydroxy-17-(pentafluoroethyl)-11-(4-{[4-(pyridin-3-ylmethyl)piperazin-1-yl]carbonyl}phenyl)estra-4,9-dien-3-one] | 7.3
C[C@]12C[C@H](c3ccc(C(=O)NCCc4cccnc4)cc3)C3=C4CCC(=O)C=C4CC[C@H]3[C@@H]1CC[C@@]2(O)C(F)(F)C(F)(F)F [Example 55, 4-[(11β,17β)-17-hydroxy-3-oxo-17-(pentafluoroethyl)estra-4,9-dien-11-yl]-N-[2-(pyridin-3-yl)ethyl]benzamide] | 2.5
